# Laboratory results as given in patent US20240041042A1, “1-(PYRIDYL)-5-AZINYLPYRAZOLE DERIVATIVES, AND THEIR USE FOR CONTROL OF UNDESIRED PLANT GROWTH” (Bayer Aktiengesellschaft, priority 2020, published 2024).
# Key:
# Assay type in all cases: in vivo
# [1] = test system: Abutilon theophrasti (ABUTH); assay: Pre-emergence herbicidal action against ABUTH; conditions: Dosage column 320 g/ha (title prints 3200 g/ha); scored visually after about 3 weeks; 100% = plants have died
# Method in brief: (§1)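 Seeds sown in pots and covered with soil; WP or EC formulations sprayed onto the soil surface at 600 l/ha water with 0.5% additive, at 320 g/ha or lower. Greenhouse growth for about 3 weeks, then visual scoring as % effect against untreated controls (100% = plants dead).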
# [2] = test system: Alopecurus myosuroides (ALOMY); assay: Pre-emergence herbicidal action against ALOMY; conditions: scored visually after about 3 weeks, 100% = plants have died
# Method in brief: as §1
# [3] = test system: Amaranthus retroflexus (AMARE); assay: Pre-emergence herbicidal action against AMARE; conditions: visual scoring after about 3 weeks vs untreated controls
# Method in brief: as §1
# Avena fatua (AVEFA) [4] = assay: Pre-emergence herbicidal action against AVEFA; conditions: visual scoring after about 3 weeks vs untreated controls
# Method in brief: as §1
# [5] = test system: Digitaria sanguinalis (DIGSA); assay: Pre-emergence herbicidal action against DIGSA
# Method in brief: as §1
# [6] = test system: Echinochloa crus-galli (ECHCG); assay: Pre-emergence herbicidal action against ECHCG
# Method in brief: as §1
# Lolium rigidum (LOLRI) [7] = assay: Pre-emergence herbicidal action against LOLRI
# Method in brief: as §1
# [8] = test system: Matricaria inodora (MATIN); assay: Pre-emergence herbicidal action against MATIN
# Method in brief: as §1
# [9] = test system: Pharbitis purpurea (PHBPU); assay: Pre-emergence herbicidal action against PHBPU
# Method in brief: as §1
# [10] = test system: Polygonum convolvulus (POLCO); assay: Pre-emergence herbicidal action against POLCO
# Method in brief: as §1
# Setaria viridis (SETVI) [11] = assay: Pre-emergence herbicidal action against SETVI
# Method in brief: as §1
# [12] = test system: Verconica persica (VERPE); assay: Pre-emergence herbicidal action against VERPE
# Method in brief: as §1
# Viola tricolor (VIOTR) [13] = assay: Pre-emergence herbicidal action against VIOTR
# Method in brief: as §1
# [14] = test system: Abutilon theophrasti (ABUTH); assay: Post-emergence herbicidal action against ABUTH; conditions: visual rating about 3 weeks after treatment vs untreated controls (100% = plants have died, 0% = like control plants)
# Method in brief: (§2)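 Values are percent visual activity (0% like control, 100% plants dead) after about 3 weeks in the greenhouse. Treatment: post-emergence spray at one-leaf stage, 600 l/ha spray volume, 0.5% additive, doses 320 g/ha or lower.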
# [15] = test system: Alopecurus myosuroides (ALOMY); assay: Post-emergence herbicidal action against ALOMY; conditions: visual rating about 3 weeks after treatment vs untreated controls (100% = plants have died, 0% = like control plants)
# Method in brief: as §2
# [16] = test system: Amaranthus retroflexus (AMARE); assay: Post-emergence herbicidal action against AMARE; conditions: 320 g/ha, visual rating about 3 weeks after treatment
# Method in brief: as §2
# Avena fatua (AVEFA) [17] = assay: Post-emergence herbicidal action against AVEFA; conditions: visual rating about 3 weeks after treatment
# Method in brief: as §2
# [18] = test system: Digitaria sanguinalis (DIGSA); assay: Post-emergence herbicidal action against DIGSA; conditions: visual rating about 3 weeks after treatment
# Method in brief: as §2
# [19] = test system: Echinochloa crus-galli (ECHCG); assay: Post-emergence herbicidal action against ECHCG
# Method in brief: as §2
# Lolium rigidum (LOLRI) [20] = assay: Post-emergence herbicidal action against LOLRI; conditions: dosage 320 g/ha
# Method in brief: as §2
# [21] = test system: Matricaria inodora (MATIN); assay: Post-emergence herbicidal action against MATIN; conditions: dosage 320 g/ha
# Method in brief: as §2
# [22] = test system: Pharbitis purpurea (PHBPU); assay: Post-emergence herbicidal action against PHBPU
# Method in brief: as §2
# [23] = test system: Polygonum convolvulus (POLCO); assay: Post-emergence herbicidal action against POLCO
# Method in brief: as §2
# Setaria viridis (SETVI) [24] = assay: Post-emergence herbicidal action against SETVI
# Method in brief: as §2
# [25] = test system: Verconica persica (VERPE); assay: Post-emergence herbicidal action against VERPE
# Method in brief: as §2
# Viola tricolor (VIOTR) [26] = assay: Post-emergence herbicidal action against VIOTR
# Method in brief: as §2
# Oryza sativa (ORYSA) = conditions: crop plant compatibility, 80 g/ha, effect in comparison to untreated controls
# Method in brief: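 Greenhouse crops in sandy loam sprayed post-emergence at the one-leaf stage, 2–3 weeks after sowing, with WP or EC formulations in water plus 0.5% additive at 600 l/ha. Damage rated visually about 3 weeks later versus untreated controls (0% = like control, 100% = dead); suffixes a–c denote different doses.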
structure (smiles),measurement,setting,value
COCCOC(=O)COc1nn(-c2ncccc2C)c(-c2cncc(F)c2)c1Br [Example I-212],Pre-emergence action against ABUTH,[1],80%
same,Pre-emergence action against ALOMY,[2]; 80 g/ha,100%
same,Pre-emergence action against ALOMY,[2]; 320 g/ha,100%
same,Pre-emergence action against AMARE in %,[3]; 80 g/ha,90%
same,Pre-emergence action against AMARE in %,[3]; 320 g/ha,100%
same,Pre-emergence action against AVEFA in %,Avena fatua (AVEFA) [4]; 80 g/ha,80%
same,Pre-emergence action against AVEFA in %,Avena fatua (AVEFA) [4]; 320 g/ha,90%
same,Pre-emergence action against DIGSA in %,"[5]; 80 g/ha, visual scoring after about 3 weeks vs untreated controls",100%
same,Pre-emergence action against DIGSA in %,[5]; dosage 320 g/ha,100%
same,Pre-emergence action against ECHCG in %,[6]; dosage 80 g/ha,100%
same,Pre-emergence action against ECHCG in %,[6]; dosage 320 g/ha,100%
same,Pre-emergence action against LOLRI in %,Lolium rigidum (LOLRI) [7]; dosage 80 g/ha,80%
same,Pre-emergence action against LOLRI in %,Lolium rigidum (LOLRI) [7]; dosage 320 g/ha,90%
same,Pre-emergence action against MATIN in %,[8]; dosage 80 g/ha,80%
same,Pre-emergence action against MATIN in %,[8]; dosage 320 g/ha,90%
same,Pre-emergence action against PHBPU in %,[9]; dosage 80 g/ha,90%
same,Pre-emergence action against PHBPU in %,[9]; dosage 320 g/ha,90%
same,Pre-emergence action against POLCO in %,[10]; dosage 80 g/ha,90%
same,Pre-emergence action against POLCO in %,[10]; dosage 320 g/ha,90%
same,Pre-emergence action against SETVI in %,Setaria viridis (SETVI) [11]; dosage 80 g/ha,100%
same,Pre-emergence action against SETVI in %,Setaria viridis (SETVI) [11]; dosage 320 g/ha,100%
same,Pre-emergence action against VERPE in %,[12]; dosage 80 g/ha,80%
same,Pre-emergence action against VERPE in %,[12]; dosage 320 g/ha,100%
same,Pre-emergence action against VIOTR in %,"Viola tricolor (VIOTR) [13]; 320 g/ha, Viola tricolor",100%
same,Pre-emergence action against VIOTR in %,Viola tricolor (VIOTR) [13]; dosage 80 g/ha,100%
same,Post-emergence action against ABUTH in %,[14]; 80 g/ha,80%
same,Post-emergence action against ABUTH in %,[14]; 320 g/ha,80%
same,Post-emergence action against ALOMY in %,[15]; 80 g/ha,90%
same,Post-emergence action against ALOMY in %,[15]; 320 g/ha,90%
same,Post-emergence action against AMARE in %,[16],80%
same,Post-emergence action against AVEFA in %,Avena fatua (AVEFA) [17]; 80 g/ha,80%
same,Post-emergence action against AVEFA in %,Avena fatua (AVEFA) [17]; 320 g/ha,90%
same,Post-emergence action against DIGSA in %,[18]; 80 g/ha,90%
same,Post-emergence action against DIGSA in %,[18]; 320 g/ha,90%
same,Post-emergence action against ECHCG in %,[19]; dosage 80 g/ha,90%
same,Post-emergence action against ECHCG in %,[19]; dosage 320 g/ha,90%
same,Post-emergence action against LOLRI in %,Lolium rigidum (LOLRI) [20],80%
same,Post-emergence action against MATIN in %,[21],80%
same,Post-emergence action against PHBPU in %,[22]; dosage 80 g/ha,90%
same,Post-emergence action against PHBPU in %,[22]; dosage 320 g/ha,100%
same,Post-emergence action against POLCO in %,[23]; dosage 80 g/ha,80%
same,Post-emergence action against POLCO in %,[23]; dosage 320 g/ha,90%
same,Post-emergence action against SETVI in %,Setaria viridis (SETVI) [24]; dosage 80 g/ha,80%
same,Post-emergence action against SETVI in %,Setaria viridis (SETVI) [24]; dosage 320 g/ha,80%
same,Post-emergence action against VERPE in %,"[25]; 320 g/ha, VERPE",80%
same,Post-emergence action against VERPE in %,[25]; dosage 80 g/ha,80%
same,Post-emergence action against VIOTR in %,Viola tricolor (VIOTR) [26]; 80 g/ha,80%
same,Post-emergence action against VIOTR in %,Viola tricolor (VIOTR) [26]; 320 g/ha,80%
same,Post-emergence action against ORYSA in %,Oryza sativa (ORYSA),10%
